Measured values: BindingDB's records for doi:10.7270/Q2RF5SF5 (Burnham Center For Chemical Genomics, 2008)

Molecular target: Heat shock 70 kDa protein 1A (Homo sapiens, UniProt V9GZ37)
Experiment: Hsp70 inhibitors, biochemical, TR-FRET (AID 786)

Heat shock 70 kDa protein 1A, sequence (V9GZ37 whole entry): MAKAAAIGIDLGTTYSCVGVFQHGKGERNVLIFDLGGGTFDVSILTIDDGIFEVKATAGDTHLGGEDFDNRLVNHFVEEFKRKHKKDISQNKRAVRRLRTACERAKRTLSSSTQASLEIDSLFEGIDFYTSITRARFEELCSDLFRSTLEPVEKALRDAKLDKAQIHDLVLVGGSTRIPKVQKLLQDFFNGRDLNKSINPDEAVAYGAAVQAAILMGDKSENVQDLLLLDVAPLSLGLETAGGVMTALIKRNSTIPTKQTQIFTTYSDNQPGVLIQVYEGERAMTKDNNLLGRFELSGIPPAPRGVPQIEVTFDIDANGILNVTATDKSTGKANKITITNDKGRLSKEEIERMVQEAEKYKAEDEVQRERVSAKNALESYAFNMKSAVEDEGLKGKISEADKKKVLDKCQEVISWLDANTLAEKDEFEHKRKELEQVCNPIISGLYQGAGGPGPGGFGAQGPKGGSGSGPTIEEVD

SMILES | IC50
C=c1[nH]n(-c2cccc(C(=O)O)c2)c(=O)c1=CC=Cc1ccco1 [SMR000113614] | 17.4 µM
CC(=O)N1CCC2(CC1)c1c(n[nH]c1C)OC(=N)C2C#N (configuration not stated) [6-azanyl-1'-ethanoyl-3-methyl-spiro[2H-pyrano[2,3-c]pyrazole-4,4'-piperidine]-5-carbonitrile] | > 100 µM
